biological target: T1, LRRK2 WT (Homo sapiens, UniProt Q5S007); experiment: LRRK2 Kinase Activity Assay (LanthaScreen TR-FRET), wild type; format: biochemical; details: recombinant wild type LRRK2, 25 μM ATP, 400 nM LRRKtide, 60 min; class symbols
T1 construct: purchased Life Technologies PR8604B
Procedure: LRRK2 kinase activity was measured using a LanthaScreen™ Kinase Activity Assay from ThermoFisher Scientific. Recombinant wild type or G2019S-LRRK2 protein (Life Technologies, PR8604B or PV4881, respectively), was incubated with a fluorescein-labeled peptide substrate called LRRKtide that is based upon ezrin/radixin/moesin (ERM) (Life Technologies, PV4901) in the presence of ATP and serially diluted compound. […] Compound-dependent inhibition of the TR-FRET signal was used to generate a concentration-response curve for IC50 determination.
After 60 min incubation at room temperature, the reaction was stopped by addition of 10 μL of 2×stop solution containing a final concentration of 2 nM anti-pERM antibody and 10 mM EDTA.

T1 sequence (Q5S007 whole entry): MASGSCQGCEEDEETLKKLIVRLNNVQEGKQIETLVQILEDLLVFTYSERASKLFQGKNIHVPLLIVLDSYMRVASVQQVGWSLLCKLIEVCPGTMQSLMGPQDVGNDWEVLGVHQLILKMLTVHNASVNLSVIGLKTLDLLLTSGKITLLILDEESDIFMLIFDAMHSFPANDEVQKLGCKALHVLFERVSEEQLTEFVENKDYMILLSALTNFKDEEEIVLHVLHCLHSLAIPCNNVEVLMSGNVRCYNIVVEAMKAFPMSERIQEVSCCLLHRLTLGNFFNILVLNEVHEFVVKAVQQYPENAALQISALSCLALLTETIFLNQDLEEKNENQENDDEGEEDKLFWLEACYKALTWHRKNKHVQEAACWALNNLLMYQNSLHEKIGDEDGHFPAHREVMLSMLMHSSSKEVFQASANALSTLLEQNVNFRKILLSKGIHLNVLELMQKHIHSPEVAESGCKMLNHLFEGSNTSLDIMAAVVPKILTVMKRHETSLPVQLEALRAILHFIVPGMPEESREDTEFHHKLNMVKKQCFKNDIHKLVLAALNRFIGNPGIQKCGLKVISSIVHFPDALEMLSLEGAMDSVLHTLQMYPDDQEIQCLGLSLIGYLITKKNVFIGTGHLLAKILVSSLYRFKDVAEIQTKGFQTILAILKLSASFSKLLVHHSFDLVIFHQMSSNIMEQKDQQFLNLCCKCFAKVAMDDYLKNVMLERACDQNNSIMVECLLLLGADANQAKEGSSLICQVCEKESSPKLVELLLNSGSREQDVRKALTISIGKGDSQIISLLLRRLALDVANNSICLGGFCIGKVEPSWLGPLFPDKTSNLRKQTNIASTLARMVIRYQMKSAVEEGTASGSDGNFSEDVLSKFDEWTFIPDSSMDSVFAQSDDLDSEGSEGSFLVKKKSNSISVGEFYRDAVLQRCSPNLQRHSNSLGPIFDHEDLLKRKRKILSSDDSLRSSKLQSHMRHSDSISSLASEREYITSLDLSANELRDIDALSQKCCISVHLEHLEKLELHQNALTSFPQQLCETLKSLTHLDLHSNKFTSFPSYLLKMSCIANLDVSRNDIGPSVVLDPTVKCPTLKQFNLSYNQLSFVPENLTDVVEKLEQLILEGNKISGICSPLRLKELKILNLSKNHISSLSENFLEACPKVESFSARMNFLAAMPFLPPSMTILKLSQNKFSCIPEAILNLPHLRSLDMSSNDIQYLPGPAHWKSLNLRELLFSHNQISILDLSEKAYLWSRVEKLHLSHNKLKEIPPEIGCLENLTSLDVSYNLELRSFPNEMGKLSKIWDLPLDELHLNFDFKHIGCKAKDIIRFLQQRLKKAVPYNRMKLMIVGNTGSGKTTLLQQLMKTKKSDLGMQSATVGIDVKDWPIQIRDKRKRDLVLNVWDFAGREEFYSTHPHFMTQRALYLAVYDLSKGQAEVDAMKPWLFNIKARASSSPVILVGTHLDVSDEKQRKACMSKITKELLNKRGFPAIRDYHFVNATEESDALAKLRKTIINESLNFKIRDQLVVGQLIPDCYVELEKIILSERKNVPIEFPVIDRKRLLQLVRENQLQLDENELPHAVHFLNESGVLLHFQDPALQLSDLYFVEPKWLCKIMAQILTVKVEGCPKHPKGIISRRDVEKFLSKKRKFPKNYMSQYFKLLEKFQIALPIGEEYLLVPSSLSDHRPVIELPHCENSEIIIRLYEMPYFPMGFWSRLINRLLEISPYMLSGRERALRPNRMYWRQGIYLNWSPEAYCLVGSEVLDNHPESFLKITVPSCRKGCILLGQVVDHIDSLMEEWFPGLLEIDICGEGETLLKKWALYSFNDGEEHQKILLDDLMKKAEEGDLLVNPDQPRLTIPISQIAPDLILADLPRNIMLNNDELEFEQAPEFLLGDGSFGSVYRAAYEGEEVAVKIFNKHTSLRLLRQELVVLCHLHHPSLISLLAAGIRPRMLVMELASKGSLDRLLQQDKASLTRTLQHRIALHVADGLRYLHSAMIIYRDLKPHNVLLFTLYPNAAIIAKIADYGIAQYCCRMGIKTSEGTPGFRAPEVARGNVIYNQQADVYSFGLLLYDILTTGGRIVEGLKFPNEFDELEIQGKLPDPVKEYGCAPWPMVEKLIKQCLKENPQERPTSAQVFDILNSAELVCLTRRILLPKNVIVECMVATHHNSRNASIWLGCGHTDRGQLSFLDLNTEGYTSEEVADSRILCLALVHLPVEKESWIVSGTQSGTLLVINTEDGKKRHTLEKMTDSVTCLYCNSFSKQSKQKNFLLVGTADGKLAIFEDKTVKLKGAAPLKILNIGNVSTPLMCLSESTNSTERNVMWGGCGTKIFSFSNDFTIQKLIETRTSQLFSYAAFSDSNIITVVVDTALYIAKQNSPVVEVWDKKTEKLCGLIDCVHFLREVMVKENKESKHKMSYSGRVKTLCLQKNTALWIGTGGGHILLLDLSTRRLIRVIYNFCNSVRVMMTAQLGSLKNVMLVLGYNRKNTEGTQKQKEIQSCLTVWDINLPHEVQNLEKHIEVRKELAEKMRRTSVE

IC50, < 100 nM:
N#Cc1cc2c(nc1Cl)[C@@H](Oc1ccc3[nH]nc(-c4cnco4)c3c1)CCC2 (single isomer, unassigned) [177, enantiomer 2, 2-Chloro-8-((3-(oxazol-5-yl)-1H-indazol-5-yl)oxy)-5,6,7,8-tetrahydroquinoline-3-carbonitrile]
N#Cc1cc2c(nc1Cl)[C@@H](Oc1ccc3[nH]nc(-c4cnoc4)c3c1)CCC2 (single isomer, unassigned) [178, enantiomer 2, 2-Chloro-8-[[3-(1,2-oxazol-4-yl)-1H-indazol-5-yl]oxy]-5,6,7,8-tetrahydroquinoline-3-carbonitrile]
N#Cc1cc2c(cc1F)[C@@H](Oc1ccc3[nH]nc(-c4cnco4)c3c1)CCC2 (single isomer, unassigned) [180, enantiomer 2, 3-Fluoro-5-[[3-(1,3-oxazol-5-yl)-1H-indazol-5-yl]oxy]-5,6,7,8-tetrahydronaphthalene-2-carbonitrile]
N#Cc1cnc2c(n1)CC[C@@H]2Oc1ccc2[nH]nc(-c3cnco3)c2c1 (single isomer, unassigned) [182, enantiomer 2, 5-((3-(Oxazol-5-yl)-1H-indazol-5-yl)oxy)-6,7-dihydro-5H-cyclopenta[b]pyrazine-2-carbonitrile]
N#Cc1cnc2c(c1)CCC[C@@H]2Oc1ccc2[nH]nc(-c3cnoc3)c2c1 (single isomer, unassigned) [Example 2, enantiomer 2, 8-((3-(Isoxazol-4-yl)-1H-indazol-5-yl)oxy)-5,6,7,8-tetrahydroquinoline-3-carbonitrile]
N#Cc1ccc2c(c1)CCC2Oc1ccc2[nH]nc(-c3cnco3)c2c1 (single isomer, unassigned) [Example 3, enantiomer 2, 1-((3-(Oxazol-5-yl)-1H-indazol-5-yl)oxy)-2,3-dihydro-1H-indene-5-carbonitrile]
N#Cc1ccc2c(c1)CC[C@@H]2Oc1ccc2[nH]nc(-c3cnn(C(F)F)c3)c2c1 (single isomer, unassigned) [Example 4, enantiomer 2, 1-((3-(1-(Difluoromethyl)-1H-pyrazol-4-yl)-1H-indazol-5-yl)oxy)-2,3-dihydro-1H-indene-5-carbonitrile]
N#Cc1ccc2c(c1)CC[C@@H]2Oc1ccc2[nH]nc(-c3cnoc3)c2c1 (single isomer, unassigned) [Example 5, enantiomer 2, 1-((3-(Isoxazol-4-yl)-1H-indazol-5-yl)oxy)-2,3-dihydro-1H-indene-5-carbonitrile]
N#Cc1ccc2c(c1)CC[C@@H]2Nc1ccc2[nH]nc(-c3cnoc3)c2c1 (single isomer, unassigned) [Example 8, enantiomer 2, 1-((3-(Isoxazol-4-yl)-1H-indazol-5-yl)amino)-2,3-dihydro-1H-indene-5-carbonitrile]
N#Cc1ccc2c(c1)CC[C@@H]2Nc1ccc2[nH]nc(-c3cnco3)c2c1 (single isomer, unassigned) [Example 9, enantiomer 2, 1-((3-(Oxazol-5-yl)-1H-indazol-5-yl)amino)-2,3-dihydro-1H-indene-5-carbonitrile]
N#Cc1ccc2c(c1)CC[C@@H]2Nc1ccc2[nH]nc(-c3ccoc3)c2c1 (single isomer, unassigned) [Example 11, enantiomer 2, 1-((3-(Furan-3-yl)-1H-indazol-5-yl)amino)-2,3-dihydro-1H-indene-5-carbonitrile]
N#Cc1ccc2c(c1)CC[C@@H]2Nc1ccc2[nH]nc(-c3cnn(C(F)F)c3)c2c1 (single isomer, unassigned) [Example 12, enantiomer 2, 1-((3-(1-(Difluoromethyl)-1H-pyrazol-4-yl)-1H-indazol-5-yl)amino)-2,3-dihydro-1H-indene-5-carbonitrile]
Cc1cc(C#N)cc2c1[C@@H](Oc1ccc3[nH]nc(-c4cnco4)c3c1)CC2 (single isomer, unassigned) [Example 14, enantiomer 2, 7-Methyl-1-((3-(oxazol-5-yl)-1H-indazol-5-yl)oxy)-2,3-dihydro-1H-indene-5-carbonitrile]
N#Cc1cnc2c(c1)CCC[C@@H]2Oc1ccc2[nH]nc(-c3cnco3)c2c1 (single isomer, unassigned) [Example 16, enantiomer 2, 8-((3-(Oxazol-5-yl)-1H-indazol-5-yl)oxy)-5,6,7,8-tetrahydroquinoline-3-carbonitrile]
N#Cc1ccc2c(c1)CCC[C@@H]2Oc1ccc2[nH]nc(-c3cnco3)c2c1 (single isomer, unassigned) [Example 18, enantiomer 2, 5-((3-(Oxazol-5-yl)-1H-indazol-5-yl)oxy)-5,6,7,8-tetrahydronaphthalene-2-carbonitrile]
Cc1c(C#N)ccc2c1CC[C@@H]2Oc1ccc2[nH]nc(-c3cnco3)c2c1 (single isomer, unassigned) [Example 22, enantiomer 2, 4-Methyl-1-((3-(oxazol-5-yl)-1H-indazol-5-yl)oxy)-2,3-dihydro-1H-indene-5-carbonitrile]
N#Cc1cc2c(cc1F)[C@@H](Oc1ccc3[nH]nc(-c4cnco4)c3c1)CC2 (single isomer, unassigned) [Example 23, enantiomer 2, 6-Fluoro-1-((3-(oxazol-5-yl)-1H-indazol-5-yl)oxy)-2,3-dihydro-1H-indene-5-carbonitrile]
N#Cc1ccc2c(c1F)CC[C@@H]2Oc1ccc2[nH]nc(-c3cnco3)c2c1 (single isomer, unassigned) [Example 24, enantiomer 2, 4-Fluoro-1-((3-(oxazol-5-yl)-1H-indazol-5-yl)oxy)-2,3-dihydro-1H-indene-5-carbonitrile]
N#Cc1cc2c(cc1F)[C@@H](Nc1ccc3[nH]nc(-c4cnco4)c3c1)CC2 (single isomer, unassigned) [Example 25, enantiomer 2, 6-Fluoro-1-((3-(oxazol-5-yl)-1H-indazol-5-yl)amino)-2,3-dihydro-1H-indene-5-carbonitrile]
N#Cc1ccc2c(c1F)CC[C@@H]2Nc1ccc2[nH]nc(-c3cnco3)c2c1 (single isomer, unassigned) [Example 26, enantiomer 2, 4-Fluoro-1-((3-(oxazol-5-yl)-1H-indazol-5-yl)amino)-2,3-dihydro-1H-indene-5-carbonitrile]
Cc1c(C#N)ccc2c1CC[C@@H]2Nc1ccc2[nH]nc(-c3cnco3)c2c1 (single isomer, unassigned) [Example 27, enantiomer 2, 4-methyl-1-((3-(oxazol-5-yl)-1H-indazol-5-yl)amino)-2,3-dihydro-1H-indene-5-carbonitrile]
Cc1cc2c(cc1C#N)CC[C@@H]2Nc1ccc2[nH]nc(-c3cnco3)c2c1 (single isomer, unassigned) [Example 28, enantiomer 2, 6-Methyl-1-((3-(oxazol-5-yl)-1H-indazol-5-yl)amino)-2,3-dihydro-1H-indene-5-carbonitrile]
Cc1cc2c(cc1C#N)CC[C@H]2Oc1ccc2[nH]nc(-c3cnco3)c2c1 (single isomer, unassigned) [Example 29, enantiomer 2, 6-Methyl-1-((3-(oxazol-5-yl)-1H-indazol-5-yl)oxy)-2,3-dihydro-1H-indene-5-carbonitrile]

From patent US20230148214A1, “INDAZOLES AND AZAINDAZOLES AS LRRK2 INHIBITORS” (ESCAPE Bio, Inc., priority 2020, published 2023)
